In patent publication US7659304B2, “Tryptophan derivative and application thereof” (priority 2005, dated 2010):

Columns and labels:
osteoblasts [1] = experiment: Influence on osteoblasts: alkaline phosphatase (ALP) activity in cultured goldfish scales; assay type: cell-based; conditions: for ALP activity: Amount of para-nitrophenol produced (mean ± standard error): 10^−6 M, scales cultured at 25° C. for 6 hours, control 1.37 ± 0.18
Protocol: The influence of the tryptophan derivatives on bone cells was tested according to a method described in N. Suzuki and A. Hattori, J. Pineal Res., 33, 253-258 (2002). Required pieces of scales were ablated from female goldfish (body weight: around 30 g) under anesthesia with MS222 (ethyl 3-aminobenzoate, methane sulfonic acid salt) (Aldrich). The scales were washed twice with an Eagle's minimum essential medium (Dainippon Pharmaceutical Co., Ltd.) containing 1% antibiotic (penicillin-streptomycin mixture). The same medium was added at 1 ml/well to a 24-well plate. The scales were added at several pieces (usually eight)/well thereto. Each tryptophan derivative was added at a concentration of 10^−6 M to each well. Subsequently, these scales were cultured at 25° C. for 6 hours. A tryptophan derivative-free group (control) was also prepared to compare the effects on bone cells. In this test, two groups, one for osteoclasts and the other for osteoblasts, were used for the tryptophan derivatives and compared them with the control. To ensure the obtained results, the duplicate test was performed. Thus, in the 24-well plate, 6 tryptophan derivatives can be examined. After culture, the medium was removed. The scales were fixed by the addition of 0.05 M cacodylic acid buffer (pH 7.4) containing 10% formalin. These scales were stored in 0.05 M cacodylic acid buffer at 4° C. until enzyme activity measurement. • (1) […] The scales treated by fixation were moved and weighed. After measurement, the scales were put into a 96-well microplate. To each well, 2001 of 100 mM tris-HCl buffer (pH 9.5) containing 10 mM para-nitrophenol phosphate (substrate), 1 mM magnesium chloride, and 0.1 mM zinc chloride was added. Reaction was performed at 25° C. for 15 minutes and terminated by the addition of a 3 M sodium hydroxide aqueous solution (50 μl). Then, 150 μl of the solution after the completion of reaction was transferred to another microplate. The amount of p-NP produced by ALP was measured with a spectrophotometer (405 nm) to determine the activity.

[2] = system: bone metabolism of ovariectomized model rat; experiment: Effect on bone metabolism of ovariectomized model rat (femur pQCT); assay type: in vivo; conditions: OVX rats, 0.17 mg/rat by gavage once a day for 6 weeks
Protocol: A test substance was the compound No. 4 ((S)-(+)-N-acetyl-2,4,6-tribromo-5-methoxytryptophan methyl ester), which was a white powder having a molecular weight of 527, and was stored at room temperature. Commercially available dimethyl sulfoxide (DMSO, Wako Pure Chemical Industries, Ltd.) was purchased as a solvent and stored at room temperature. • 2. Method for Preparing Test Substance
The solution of the test substance was administered in a volume of 100 μL/rat in consideration of the toxicity of the solvent. For a dose of 0.17 mg of the test substance (compound No. 4)/rat, 86.6 mg of the test substance was weighed and dissolved in 50.9 mL of the solvent (0.17 mg/0.1 mL). • 3. Animal Used and Raising Conditions
Five-week-old female SPF SD (Crl:SD) rats were obtained from Charles River Laboratories Japan, Inc. After seven-day acclimation and quarantine, 6-week-old ovariectomized models were prepared. Administration was performed from the day following model preparation.
The animals were raised in the rat/mouse room of a test laboratory set to a temperature of 24±3° C., a humidity of 50±20%, the number of ventilations of approximately 10 to 20 times/hour, a lighting time of 12 hours/day (8:00 light on, 20:00 light off), and an illuminance of 150 to 300 Lux. • 4. Administration Method
The test substance was administered once a day for 6 weeks by gavage administration to the rats without anesthesia under non-fasting by use of a feeding needle made of a metal and a syringe barrel. In this context, 1 week is defined as 7 days, and the day following ovariectomy when the administration was initiated is defined as Day 1. The amount of the solution administered was set to 0.1 mL/rat.
The bone densities of the left femurs were measured using a peripheral bone density measurement apparatus PQCT (abbreviation of peripheral Quantitative Computed Tomography, XCT-Research SA+, Stratec). For cancellous bone parameter measurement, the metaphyseal region was sliced at a distance of 3 mm from the distal growth cartilage. Alternatively, for cortical bone parameter measurement, the diaphyseal region was sliced at a distance of 13 mm therefrom. The measurement parameters were a bone density (total density and cancellous bone), an area (total area and cancellous bone), and SSI (Stress Strain Index) for the metaphyseal region and were the bone density, area, and thickness of the cortical bone, a periosteal circumference length, an endosteal circumference length, and SSI for the diaphyseal region. Software used was Rev.5.50e.

osteoclasts [3] = experiment: Influence on osteoclasts: tartrate-resistant acid phosphatase (TRAP) activity in cultured goldfish scales; assay type: cell-based; conditions: for TRAP activity: Amount of para-nitrophenol produced (mean ± standard error): 10^−6 M, scales cultured at 25° C. for 6 hours, control 0.700 ± 0.041
Protocol: The influence of the tryptophan derivatives on bone cells was tested according to a method described in N. Suzuki and A. Hattori, J. Pineal Res., 33, 253-258 (2002). Required pieces of scales were ablated from female goldfish (body weight: around 30 g) under anesthesia with MS222 (ethyl 3-aminobenzoate, methane sulfonic acid salt) (Aldrich). The scales were washed twice with an Eagle's minimum essential medium (Dainippon Pharmaceutical Co., Ltd.) containing 1% antibiotic (penicillin-streptomycin mixture). The same medium was added at 1 ml/well to a 24-well plate. The scales were added at several pieces (usually eight)/well thereto. Each tryptophan derivative was added at a concentration of 10^−6 M to each well. Subsequently, these scales were cultured at 25° C. for 6 hours. A tryptophan derivative-free group (control) was also prepared to compare the effects on bone cells. In this test, two groups, one for osteoclasts and the other for osteoblasts, were used for the tryptophan derivatives and compared them with the control. To ensure the obtained results, the duplicate test was performed. Thus, in the 24-well plate, 6 tryptophan derivatives can be examined. After culture, the medium was removed. The scales were fixed by the addition of 0.05 M cacodylic acid buffer (pH 7.4) containing 10% formalin. These scales were stored in 0.05 M cacodylic acid buffer at 4° C. until enzyme activity measurement. • (1) Influence on Osteoclasts: Tartrate-Resistant Acid Phosphatase (TRAP) Activity Measurement The scales treated by fixation were moved and weighed. After measurement, the scales were put into a 96-well microplate. To each well, 2001 of 100 mM acetate buffer (pH 5.3) containing 20 mM tartrate and 10 mM para-nitrophenol phosphate (substrate) was added. Reaction was performed at 25° C. for 20 minutes and subsequently terminated by the addition of a 3 M sodium hydroxide aqueous solution (50±1). Then, […] of the solution after the completion of reaction was transferred to another microplate. The amount of para-nitrophenol (p-NP) produced by TRAP was measured with a spectrophotometer (405 nm). The osteoclast activity was indicated as the amount of p-NP produced by the decomposition of para-nitrophenol phosphate per g of scale per minute.

osteoclasts [4] = conditions: literature report; cited from earlier work
osteoblasts [5] = conditions: literature report; cited from earlier work

Work on `COC(=O)[C@H](Cc1c(Br)[nH]c2cc(Br)c(OC)cc12)NC(C)=O` [Compound 2, (S)-(+)-N-acetyl-2,6-dibromo-5-methoxytryptophan methyl ester] yielded a melting point of 174 to 175 °C.

With `COC(=O)[C@H](Cc1c(Br)[nH]c2c(Br)cc(OC)c(Br)c12)NC(C)=O` [Compound 3, (S)-(+)-N-acetyl-2,4,7-tribromo-5-methoxytryptophan methyl ester] the melting point was 218 to 220 °C.

With `COC(=O)[C@H](Cc1c(Br)[nH]c2cc(Br)c(OC)c(Br)c12)NC(C)=O` [Compound 4, (S)-(+)-N-acetyl-2,4,6-tribromo-5-methoxytryptophan methyl ester] the “ALP activity: Amount of para-nitrophenol produced (mean ± standard error)” value (“ALP activity: Amount … (mean ± standard error)” for short) (osteoblasts [1]) was 2.62 ± 0.20 nmol/g of scale/min, the “bone density of the cancellous bone (metaphyseal region) compared with OVX + Vehicle group (in words)” value [2] was “increased” and the “change in the diaphyseal region compared with OVX + Vehicle group (in words)” value [2] was “no change”. For the same compound, the “total bone density of the metaphyseal region compared with OVX + Vehicle group (in words)” value [2] was “increased”, the “Diaphyseal region SSI Polar” value ([2]; left femur, OVX + Vehicle 6.753 ± 0.380) was 6.877 ± 0.605 and the “Diaphyseal region Endosteal circumference length” value ([2]; left femur, OVX + Vehicle 8.360 ± 0.467) was 8.260 ± 0.666 mm. For the same compound, the “Metaphyseal region Area Cancellous bone” value ([2]; left femur, OVX + Vehicle 9.47 ± 1.52) was 7.44 ± 0.47 mm^2, the “Metaphyseal region SSI Polar” value ([2]; left femur, OVX + Vehicle 9.801 ± 0.574) was 11.474 ± 0.346 and the “Diaphyseal region Periosteal circumference length” value ([2]; left femur, OVX + Vehicle 11.819 ± 0.333) was 11.729 ± 0.455 mm. The “Metaphyseal region Area Total area” value ([2]; left femur, OVX + Vehicle 21.69 ± 1.61) was 23.67 ± 1.34 mm^2, the “Metaphyseal region Bone density Cancellous bone” value ([2]; left femur, OVX + Vehicle 192.9 ± 24.6) was 253.4 ± 2.9 mg/mL and the “Metaphyseal region Bone density Total density” value ([2]; left femur, OVX + Vehicle 473.1 ± 29.3) was 520.4 ± 31.7 mg/mL. The “Diaphyseal region Thickness” value ([2]; cortical bone, left femur, OVX + Vehicle 0.551 ± 0.021) was 0.552 ± 0.038 mm, the “Diaphyseal region Area” value ([2]; cortical bone, left femur, OVX + Vehicle 5.55 ± 0.02) was 5.50 ± 0.17 mm^2 and the “Diaphyseal region Bone density” value ([2]; cortical bone, left femur, OVX + Vehicle 1265.7 ± 15.9) was 1254.9 ± 14.6 mg/mL. The melting point was 198 to 199 °C and the “TRAP activity: Amount of para-nitrophenol produced (mean ± standard error)” value (“TRAP activity: Amount … (mean ± standard error)” for short) (osteoclasts [3]) was 0.699 ± 0.064 nmol/g of scale/min.

In the case of `COC(=O)[C@H](Cc1c(Br)n(C(=O)OC(C)(C)C)c2cc(Br)c(OC)c(Br)c12)NC(C)=O` [Compound 5, (S)-(+)-N-acetyl-2,4,6-tribromo-1-t-butoxycarbonyl-5-methoxytryptophan methyl ester], the “ALP activity: Amount … (mean ± standard error)” value (osteoblasts [1]) is reported as 2.48 ± 0.42 nmol/g of scale/min and the “TRAP activity: Amount … (mean ± standard error)” value (osteoclasts [3]) is reported as 0.747 ± 0.063 nmol/g of scale/min.

With `C=CCn1c(Br)c(C[C@H](NC(C)=O)C(=O)OC)c2c(Br)c(OC)c(Br)cc21` [Compound 6, (S)-(+)-N-acetyl-1-allyl-2,4,6-tribromo-5-methoxytryptophan methyl ester] the “ALP activity: Amount … (mean ± standard error)” value (osteoblasts [1]) was 2.39 ± 0.40 nmol/g of scale/min and the “TRAP activity: Amount … (mean ± standard error)” value (osteoclasts [3]) was 0.882 ± 0.106 nmol/g of scale/min.

With `C#CCn1c(Br)c(C[C@H](NC(C)=O)C(=O)OC)c2c(Br)c(OC)c(Br)cc21` [Compound 7, (S)-(+)-N-acetyl-2,4,6-tribromo-5-methoxy-1-propargyltryptophan methyl ester] the “ALP activity: Amount … (mean ± standard error)” value (osteoblasts [1]) was 2.50 ± 0.51 nmol/g of scale/min and the “TRAP activity: Amount … (mean ± standard error)” value (osteoclasts [3]) was 0.838 ± 0.056 nmol/g of scale/min.

For `COC(=O)[C@H](Cc1c(Br)n(Cc2ccccc2)c2cc(Br)c(OC)c(Br)c12)NC(C)=O` [Compound 8, (S)-(+)-N-acetyl-1-benzyl-2,4,6-tribromo-5-methoxytryptophan methyl ester], the “ALP activity: Amount … (mean ± standard error)” value (osteoblasts [1]) was 1.17 ± 0.32 nmol/g of scale/min and the “TRAP activity: Amount … (mean ± standard error)” value (osteoclasts [3]) was 0.829 ± 0.047 nmol/g of scale/min.

In the case of `COc1ccc2[nH]cc(CCNC(C)=O)c2c1` [Melatonin, N-acetyl-5-methoxytryptamine, reference compound], the “ALP activity: Amount … (mean ± standard error)” value (osteoblasts [1]) is given as 1.06 ± 0.17 nmol/g of scale/min, the “action on osteoblasts (in words)” value (osteoblasts [1]; conclusion from Table 2) is given as “inhibitory” and the “action on osteoclasts (in words), reported in Non-Patent Document 1” value (osteoclasts [4]) is given as “inhibitory”. For the same compound, the “TRAP activity: Amount … (mean ± standard error)” value (osteoclasts [3]) was 0.467 ± 0.052 nmol/g of scale/min, the “action on osteoclasts (in words)” value (osteoclasts [3]; conclusion from Table 1) was “inhibitory” and the “action on osteoblasts (in words), reported in Non-Patent Document 1” value (osteoblasts [5]) was “inhibitory”.
